Reference: US10538554B2, “Peptides and uses therefor as antiviral agents” (priority 2015, dated 2020)
Bridge positions count the residues as written; N and C are the ends. Square brackets hold non-standard residues; d marks the D form. Peptide text beside a SMILES is read from it.

System: H1N1 A/PR/8/1934
Conditions: A/PR/8/1934, 48 h, 1 μM

Compound | % Inhibition [%]
CC[C@@H](C)[C@H]1NC(=O)[C@@H](Cc2ccccc2)NC(=O)[C@@H]([C@H](C)O)NC(=O)[C@@H](Cc2ccccc2)NC(=O)[C@@H](Cc2c[nH]c3ccccc23)NC(=O)[C@@H](CCCCN)NC(=O)[C@H](NC(=O)[C@H](CCCCN)NC(=O)[C@H](CCCCN)NC(=O)[C@H](CCCNC(=N)N)NC(=O)[C@@H](N)CCCNC(=N)N)CSSC[C@H](C(=O)O)NC(=O)[C@@H](CC(N)=O)NC1=O [PSP V A9, H-RRKKckwftfinc-OH] (H-RRKK[dC][dK][dW][dF][dT][dF][dI][dN][dC]-OH; disulfide 5-13) | 77
CC[C@@H](C)[C@H]1NC(=O)[C@@H](Cc2ccccc2)NC(=O)[C@@H]([C@H](C)O)NC(=O)[C@@H](Cc2ccccc2)NC(=O)[C@@H](Cc2c[nH]c3ccccc23)NC(=O)[C@@H](Cc2ccc(O)cc2)NC(=O)[C@H](NC(=O)[C@H](CCCCN)NC(=O)[C@H](CCCCN)NC(=O)[C@H](CCCNC(=N)N)NC(=O)[C@@H](N)CCCNC(=N)N)CSSC[C@H](C(=O)O)NC(=O)[C@@H](CC(N)=O)NC1=O [PSP V A20, H-RRKKcywftfinc-OH] (H-RRKK[dC][dY][dW][dF][dT][dF][dI][dN][dC]-OH; disulfide 5-13) | <20
CC[C@@H](C)[C@H]1NC(=O)[C@@H](Cc2ccccc2)NC(=O)[C@@H]([C@H](C)O)NC(=O)[C@@H](Cc2ccccc2)NC(=O)[C@@H](Cc2c[nH]c3ccccc23)NC(=O)[C@@H](Cc2c[nH]c3ccccc23)NC(=O)[C@H](NC(=O)[C@H](CCCCN)NC(=O)[C@H](CCCCN)NC(=O)[C@H](CCCNC(=N)N)NC(=O)[C@@H](N)CCCNC(=N)N)CSSC[C@H](C(=O)O)NC(=O)[C@@H]([C@H](C)CC)NC1=O [PSP VI A8, H-RRKKcwwftfiic-OH] (H-RRKK[dC][dW][dW][dF][dT][dF][dI][dI][dC]-OH; disulfide 5-13) | 49
CC[C@@H](C)[C@H]1NC(=O)[C@@H](Cc2ccccc2)NC(=O)[C@@H]([C@H](C)O)NC(=O)[C@@H](Cc2ccccc2)NC(=O)[C@@H](Cc2c[nH]c3ccccc23)NC(=O)[C@@H](Cc2c[nH]c3ccccc23)NC(=O)[C@H](NC(=O)[C@H](CCCCN)NC(=O)[C@H](CCCCN)NC(=O)[C@H](CCCNC(=N)N)NC(=O)[C@@H](N)CCCNC(=N)N)CSSC[C@H](C(=O)O)NC(=O)[C@H]2CCCN2C1=O [PSP VI A13, H-RRKKcwwftfipc-OH] (H-RRKK[dC][dW][dW][dF][dT][dF][dI][dP][dC]-OH; disulfide 5-13) | 42
CC[C@@H](C)[C@H]1NC(=O)[C@@H](Cc2ccccc2)NC(=O)[C@@H]([C@H](C)O)NC(=O)[C@@H](Cc2ccccc2)NC(=O)[C@@H](Cc2c[nH]c3ccccc23)NC(=O)[C@@H](Cc2c[nH]c3ccccc23)NC(=O)[C@H](NC(=O)[C@H](CCCCN)NC(=O)[C@H](CCCCN)NC(=O)[C@H](CCCNC(=N)N)NC(=O)[C@@H](N)CCCNC(=N)N)CSSC[C@H](C(=O)O)NC(=O)[C@@H](CC(C)C)NC1=O [PSP VI A10, H-RRKKcwwftfilc-OH] (H-RRKK[dC][dW][dW][dF][dT][dF][dI][dL][dC]-OH; disulfide 5-13) | 48
CC[C@@H](C)[C@H]1NC(=O)[C@@H](Cc2ccccc2)NC(=O)[C@@H]([C@H](C)O)NC(=O)[C@@H](Cc2ccccc2)NC(=O)[C@@H](Cc2c[nH]c3ccccc23)NC(=O)[C@@H](CO)NC(=O)[C@H](NC(=O)[C@H](CCCCN)NC(=O)[C@H](CCCCN)NC(=O)[C@H](CCCNC(=N)N)NC(=O)[C@@H](N)CCCNC(=N)N)CSSC[C@H](C(=O)O)NC(=O)[C@@H](CC(N)=O)NC1=O [PSP V A16, H-RRKKcswftfinc-OH] (H-RRKK[dC][dS][dW][dF][dT][dF][dI][dN][dC]-OH; disulfide 5-13) | 54
CC[C@@H](C)[C@H]1NC(=O)[C@@H](Cc2ccccc2)NC(=O)[C@@H]([C@H](C)O)NC(=O)[C@@H](Cc2ccccc2)NC(=O)[C@@H](Cc2c[nH]c3ccccc23)NC(=O)[C@@H](C(C)C)NC(=O)[C@H](NC(=O)[C@H](CCCCN)NC(=O)[C@H](CCCCN)NC(=O)[C@H](CCCNC(=N)N)NC(=O)[C@@H](N)CCCNC(=N)N)CSSC[C@H](C(=O)O)NC(=O)[C@@H](CC(N)=O)NC1=O [PSP V A18, H-RRKKcvwftfinc-OH] (H-RRKK[dC][dV][dW][dF][dT][dF][dI][dN][dC]-OH; disulfide 5-13) | 81
CC[C@@H](C)[C@H]1NC(=O)[C@@H](Cc2ccccc2)NC(=O)[C@@H]([C@H](C)O)NC(=O)[C@@H](Cc2ccccc2)NC(=O)[C@@H](Cc2c[nH]c3ccccc23)NC(=O)[C@@H](CC(N)=O)NC(=O)[C@H](NC(=O)[C@H](CCCCN)NC(=O)[C@H](CCCCN)NC(=O)[C@H](CCCNC(=N)N)NC(=O)[C@@H](N)CCCNC(=N)N)CSSC[C@H](C(=O)O)NC(=O)[C@@H](CC(N)=O)NC1=O [PSP V A12, H-RRKKcnwftfinc-OH] (H-RRKK[dC][dN][dW][dF][dT][dF][dI][dN][dC]-OH; disulfide 5-13) | <20
CC[C@@H](C)[C@H]1NC(=O)[C@@H](Cc2ccccc2)NC(=O)[C@@H]([C@H](C)O)NC(=O)[C@@H](Cc2ccccc2)NC(=O)[C@@H](Cc2c[nH]c3ccccc23)NC(=O)CNC(=O)[C@H](NC(=O)[C@H](CCCCN)NC(=O)[C@H](CCCCN)NC(=O)[C@H](CCCNC(=N)N)NC(=O)[C@@H](N)CCCNC(=N)N)CSSC[C@H](C(=O)O)NC(=O)[C@@H](CC(N)=O)NC1=O [PSP V A6, H-RRKKcGwftfinc-OH] (H-RRKK[dC]G[dW][dF][dT][dF][dI][dN][dC]-OH; disulfide 5-13) | <20
CC[C@@H](C)[C@H]1NC(=O)[C@@H](Cc2ccccc2)NC(=O)[C@@H]([C@H](C)O)NC(=O)[C@@H](Cc2ccccc2)NC(=O)[C@@H](Cc2c[nH]c3ccccc23)NC(=O)[C@@H](Cc2c[nH]c3ccccc23)NC(=O)[C@H](NC(=O)[C@H](CCCCN)NC(=O)[C@H](CCCCN)NC(=O)[C@H](CCCNC(=N)N)NC(=O)[C@@H](N)CCCNC(=N)N)CSSC[C@H](C(=O)O)NC(=O)[C@@H](CCCNC(=N)N)NC1=O [PSP VI A15, H-RRKKcwwftfirc-OH] (H-RRKK[dC][dW][dW][dF][dT][dF][dI][dR][dC]-OH; disulfide 5-13) | 92
CC[C@@H](C)[C@H]1NC(=O)[C@@H](Cc2ccccc2)NC(=O)[C@@H]([C@H](C)O)NC(=O)[C@@H](Cc2ccccc2)NC(=O)[C@@H](Cc2c[nH]c3ccccc23)NC(=O)[C@@H](Cc2ccccc2)NC(=O)[C@H](NC(=O)[C@H](CCCCN)NC(=O)[C@H](CCCCN)NC(=O)[C@H](CCCNC(=N)N)NC(=O)[C@@H](N)CCCNC(=N)N)CSSC[C@H](C(=O)O)NC(=O)[C@@H](CC(N)=O)NC1=O [PSP V A5, H-RRKKcfWftfinc-OH] (H-RRKK[dC][dF][dW][dF][dT][dF][dI][dN][dC]-OH; disulfide 5-13) | 57
CC[C@@H](C)[C@H]1NC(=O)[C@@H](Cc2ccccc2)NC(=O)[C@@H]([C@H](C)O)NC(=O)[C@@H](Cc2ccccc2)NC(=O)[C@@H](Cc2c[nH]c3ccccc23)NC(=O)[C@@H](Cc2c[nH]c3ccccc23)NC(=O)[C@H](NC(=O)[C@H](CCCCN)NC(=O)[C@H](CCCCN)NC(=O)[C@H](CCCNC(=N)N)NC(=O)[C@@H](N)CCCNC(=N)N)CSSC[C@H](C(=O)O)NC(=O)CNC1=O [PSP VI A6, H RRKKcwwftfiGc-OH] (H-RRKK[dC][dW][dW][dF][dT][dF][dI]G[dC]-OH; disulfide 5-13) | 69
CC[C@@H](C)[C@H]1NC(=O)[C@@H](Cc2ccccc2)NC(=O)[C@@H]([C@H](C)O)NC(=O)[C@@H](Cc2ccccc2)NC(=O)[C@@H](Cc2c[nH]c3ccccc23)NC(=O)[C@@H](Cc2c[nH]c3ccccc23)NC(=O)[C@H](NC(=O)[C@H](CCCCN)NC(=O)[C@H](CCCCN)NC(=O)[C@H](CCCNC(=N)N)NC(=O)[C@@H](N)CCCNC(=N)N)CSSC[C@H](C(=O)O)NC(=O)[C@@H](CS)NC1=O [PSP VI A2, H-RRKKcwwftficc-OH] (H-RRKK[dC][dW][dW][dF][dT][dF][dI][dC][dC]-OH; disulfide 5-13) | 95
CC[C@@H](C)[C@H]1NC(=O)[C@@H](Cc2ccccc2)NC(=O)[C@@H]([C@H](C)O)NC(=O)[C@@H](Cc2ccccc2)NC(=O)[C@@H](Cc2c[nH]c3ccccc23)NC(=O)[C@@H](CC(C)C)NC(=O)[C@H](NC(=O)[C@H](CCCCN)NC(=O)[C@H](CCCCN)NC(=O)[C@H](CCCNC(=N)N)NC(=O)[C@@H](N)CCCNC(=N)N)CSSC[C@H](C(=O)O)NC(=O)[C@@H](CC(N)=O)NC1=O [PSP V A10, H-RRKKclwftfinc-OH] (H-RRKK[dC][dL][dW][dF][dT][dF][dI][dN][dC]-OH; disulfide 5-13) | 65
CC[C@@H](C)[C@H]1NC(=O)[C@@H](Cc2ccccc2)NC(=O)[C@@H]([C@H](C)O)NC(=O)[C@@H](Cc2ccccc2)NC(=O)[C@@H](Cc2c[nH]c3ccccc23)NC(=O)[C@@H](C)NC(=O)[C@H](NC(=O)[C@H](CCCCN)NC(=O)[C@H](CCCCN)NC(=O)[C@H](CCCNC(=N)N)NC(=O)[C@@H](N)CCCNC(=N)N)CSSC[C@H](C(=O)O)NC(=O)[C@@H](CC(N)=O)NC1=O [PSP V A1, H-RRKKcawftfinc-OH] (H-RRKK[dC][dA][dW][dF][dT][dF][dI][dN][dC]-OH; disulfide 5-13) | <20
CC[C@@H](C)[C@H]1NC(=O)[C@@H](Cc2ccccc2)NC(=O)[C@@H]([C@H](C)O)NC(=O)[C@@H](Cc2ccccc2)NC(=O)[C@@H](Cc2c[nH]c3ccccc23)NC(=O)[C@@H](CCC(N)=O)NC(=O)[C@H](NC(=O)[C@H](CCCCN)NC(=O)[C@H](CCCCN)NC(=O)[C@H](CCCNC(=N)N)NC(=O)[C@@H](N)CCCNC(=N)N)CSSC[C@H](C(=O)O)NC(=O)[C@@H](CC(N)=O)NC1=O [PSP V A14, H-RRKKcqwftfinc-OH] (H-RRKK[dC][dQ][dW][dF][dT][dF][dI][dN][dC]-OH; disulfide 5-13) | 44
